Results on seven molecules are retold here after patent publication US8389739B1, “Modulators of retinoid-related orphan receptor gamma” (Orphagen Pharmaceuticals, priority 2006, dated 2013).

Structures are written as SMILES. Where “and” joins values, the source holds several entries; their conditions need not be identical. Equal values may be shown once. Read-outs that look alike come from different tables or passages of the source. Bounds are passed on as bounds.

What all share (format): cell-based
Assay [1] addresses T1, mLXRα (Liver X receptor alpha) (Mus musculus, UniProt Q9Z0Y9).
T1 construct: 172-455; expressed in transfected cells; host or cells: CHO cells, transient transfection
T1 sequence (Q9Z0Y9 172-445 limits assumed): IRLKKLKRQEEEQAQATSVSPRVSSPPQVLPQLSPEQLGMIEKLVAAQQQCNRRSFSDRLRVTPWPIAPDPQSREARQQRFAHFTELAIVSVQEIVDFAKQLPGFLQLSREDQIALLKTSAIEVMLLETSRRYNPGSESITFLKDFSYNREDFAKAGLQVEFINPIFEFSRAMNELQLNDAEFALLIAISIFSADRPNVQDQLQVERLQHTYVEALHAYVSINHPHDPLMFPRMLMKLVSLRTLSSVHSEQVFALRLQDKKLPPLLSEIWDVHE
Briefly: Transcriptional assay of LXRα (Gal4-LXRα hybrid). As to the method:
(§1) A firefly luciferase reporter gene for Gal4 DBD hybrid receptors, such as Gal4-RORγ, contains five copies of the Gal4 17-mer response element in its promoter and the coding sequence for firefly luciferase (pG5-luc, Promega). CHO (Chinese Hamster Ovary) cells were cultured in Ham's F12 medium supplemented with 10% fetal calf serum (Gemini Biologicals), 10 μg/ml penicillin and streptomycin, and were maintained in a humidified 37° C. incubator (Thermo Electron, Steri-Cycle) with 5% CO2. 24 hours before transfection, cells were plated in T175 flasks (5×10^6 cells/flask) or T75 flasks (1.7×10^6 cells/flask). Transient transfection of CHO cells was performed using TransIT-CHO reagents (Minis, Madison, Wis.) with a mixing ratio of 2:6:1 between plasmid DNA (in μg), TransIT-CHO (in μl) and CHO-mojo (in μl).
(§2) Plates are maintained at 37° C. in a humidified atmosphere with 7% CO2 overnight. Four (4) hours after cell seeding, compounds dissolved in DMSO at 10 mM were added to cells at final concentrations of 20 micromolar (μM) to 20 nanomolar (nM) in 0.2% DMSO in triplicate plates. Approximately 40 hours later, cytotoxicity in the assay well was characterized by addition of the dye resazurin (O'Brien, Wilson et al. 2000) to a final concentration of 3 μM. […] Percent viability was determined as 2 hour fluorescence, minus background at t=0 hours, normalized to DMSO controls. For detection of luciferase activity, media was removed from plates after the measurement of resazurin conversion, and SteadyLite luciferase reagent (Perkin-Elmer) was added (30 μl/well). Luminescence is detected with a Victor 2-V plate reader (Perkin-Elmer) and normalized to luciferase activity of DMSO control wells alone.
A transcriptional assay for LXRα, using a Gal4-LXRα hybrid, was implemented in order to compare RORγ ligand potencies. In addition to LXRα, transcriptional assays for a number of other major nuclear receptors were developed.

Assay [2] deals with T2, mRORγ (Mus musculus, UniProt P51450).
T2 construct: expressed in transfected cells; host or cells: CHO cells, transient transfection
In words: Transcriptional assay, Gal4-mRORγ with luciferase reporter in CHO cells. As to the method:
The complete Gal4-mRORγ nucleotide sequence is shown below:
as §1, §2

Assay [3] has as its target T3, hPPARα (Homo sapiens, UniProt Q07869).
T3 construct: 166-468; expressed in transfected cells; host or cells: CHO cells, transient transfection
T3 sequence (Q07869 166-468): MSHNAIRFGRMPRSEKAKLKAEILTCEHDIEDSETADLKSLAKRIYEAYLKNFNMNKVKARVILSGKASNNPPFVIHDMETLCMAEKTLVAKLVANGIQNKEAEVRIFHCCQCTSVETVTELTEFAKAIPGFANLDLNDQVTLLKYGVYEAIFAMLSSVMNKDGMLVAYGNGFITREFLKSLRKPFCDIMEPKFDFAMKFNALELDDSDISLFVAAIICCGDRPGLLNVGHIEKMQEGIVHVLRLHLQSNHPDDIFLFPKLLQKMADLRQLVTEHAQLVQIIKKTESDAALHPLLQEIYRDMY
In words: Crossreactive receptor transcriptional assay (Gal4 hybrid). As to the method:
as §1, §2

Assay [4] deals with T4, hFXR (farnesoid X receptor) (Homo sapiens, UniProt Q96RI1).
T4 construct: 192-473; expressed in transfected cells; host or cells: CHO cells, transient transfection
T4 sequence (Q96RI1 192-472 isoform Q96RI1-2): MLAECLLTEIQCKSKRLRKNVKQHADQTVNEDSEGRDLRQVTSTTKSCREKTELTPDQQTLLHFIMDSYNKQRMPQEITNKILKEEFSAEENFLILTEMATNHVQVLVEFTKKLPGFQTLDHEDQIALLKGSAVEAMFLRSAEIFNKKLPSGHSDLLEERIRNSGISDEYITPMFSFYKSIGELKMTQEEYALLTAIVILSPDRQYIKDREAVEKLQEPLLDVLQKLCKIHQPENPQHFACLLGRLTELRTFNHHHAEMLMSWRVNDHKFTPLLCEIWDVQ
The description is as above. As to the method: as §1, §2

In assay [5] the target is T5, hRARα (retinoic acid receptor alpha) (Homo sapiens, UniProt P10276).
T5 construct: 156-462; expressed in transfected cells; host or cells: CHO cells, transient transfection
T5 sequence (P10276 156-462): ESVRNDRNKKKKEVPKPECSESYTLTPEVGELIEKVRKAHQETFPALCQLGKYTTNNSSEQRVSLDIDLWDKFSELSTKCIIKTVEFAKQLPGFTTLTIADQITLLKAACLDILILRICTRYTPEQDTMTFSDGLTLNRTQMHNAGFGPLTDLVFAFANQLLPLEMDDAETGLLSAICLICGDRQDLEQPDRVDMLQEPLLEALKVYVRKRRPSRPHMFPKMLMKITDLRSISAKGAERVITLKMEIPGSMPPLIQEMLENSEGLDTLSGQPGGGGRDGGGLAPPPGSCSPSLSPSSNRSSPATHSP
Described as above. As to the method: as §1, §2

In assay [6] the target is T6, hRXRα (retinoid X receptor alpha) (Homo sapiens, UniProt P19793).
T6 construct: 203-462; expressed in transfected cells; host or cells: CHO cells, transient transfection
T6 sequence (P19793 203-462): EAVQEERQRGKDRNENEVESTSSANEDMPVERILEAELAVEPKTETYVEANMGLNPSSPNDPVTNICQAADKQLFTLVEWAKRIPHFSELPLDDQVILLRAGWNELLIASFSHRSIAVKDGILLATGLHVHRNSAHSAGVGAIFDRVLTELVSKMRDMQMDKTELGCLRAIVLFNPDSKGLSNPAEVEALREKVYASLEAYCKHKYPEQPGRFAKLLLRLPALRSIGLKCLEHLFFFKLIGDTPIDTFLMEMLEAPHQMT
Described as above. As to the method: as §1, §2

The mark [7] stands for this setting: Table 6, read-out: Potency (EC50) at mLXRα.
The mark [8] stands for this setting: Table 4A, medians of two or more assays, unit inferred, read-out: EC50 Transcriptional.
[9] abbreviates: read-out: EC50 in the transcriptional assay for RORγ.
The mark [10] stands for this setting: Table 6, RORγ ligands: no significant activity at 20 μM, read-out: Potency (EC50) at hPPARα.
Setting [11] is: Table 6, read-out: Potency (EC50) at hFXR.
The mark [12] stands for this setting: Table 6, read-out: Potency (EC50) at hRARα.
The mark [13] stands for this setting: Table 6, read-out: Potency (EC50) at hRXRα.

T2 sequence (P51450 with tags, fused parts or gaps): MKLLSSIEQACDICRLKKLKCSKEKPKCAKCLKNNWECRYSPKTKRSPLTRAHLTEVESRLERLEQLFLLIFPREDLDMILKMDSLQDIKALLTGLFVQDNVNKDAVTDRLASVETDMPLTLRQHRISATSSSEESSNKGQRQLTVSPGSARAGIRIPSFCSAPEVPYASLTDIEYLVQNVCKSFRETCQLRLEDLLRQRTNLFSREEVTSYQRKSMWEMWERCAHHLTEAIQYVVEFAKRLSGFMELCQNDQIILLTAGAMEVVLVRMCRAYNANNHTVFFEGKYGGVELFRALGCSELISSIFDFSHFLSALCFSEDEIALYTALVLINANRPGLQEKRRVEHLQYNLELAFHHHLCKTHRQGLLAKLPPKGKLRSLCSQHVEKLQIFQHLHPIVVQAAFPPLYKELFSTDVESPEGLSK

Regarding `CC(=O)O[C@H]1CC[C@@]2(C)C(CC[C@]3(C)C2C(=O)C=C2C4[C@@H](C)[C@H](C)CC[C@]4(C(=O)O)CC[C@]23C)C1(C)C` (stereo in doubt) [OR-13571, 10-Acetoxy-1,2,6a,6b,9,9,12a-heptamethyl-13-oxo-1,3,4,5,6,6a,6b,7,8,8a,9,10,11,12,12a,12b,13,14b-octadecahydro-2H-picene-4a-carboxylic acid], the EC50 in assay [1] (setting [7]) is more than 10 µM; in assay [2] (setting [8]), 0.27 µM; in assay [2] (setting [9]) it was less than 1 µM; in assay [3] (setting [10]), more than 10 µM; in assay [4] (setting [11]), more than 10 µM; in assay [5] (setting [12]), more than 10 µM. For the same molecule, the EC50 in assay [6] (setting [13]) is more than 10 µM.

As for `O=S(=O)(c1ccccc1)N(CC(F)(F)F)c1ccc(C(O)(C(F)(F)F)C(F)(F)F)cc1` [Compound T0901317, N-(2,2,2-Trifluoro-ethyl)-N-[4-(2,2,2-trifluoro-1-hydroxy-1-trifluoromethyl-ethyl)-phenyl]-benzenesulfonamide, reference compound], the maximal response (Emax) in assay [1] came to 100%. In addition, the EC50 is 0.1 to 1 µM in assay [1] (setting [7]); 0.14 µM in assay [1] (Table 7, no unit printed for this column (b114 gives 1.5 μM for OR-1050), read-out: Transcriptional Assay of LXRα EC50); more than 10 µM in assay [3] (setting [10]); more than 10 µM in assay [5] (setting [12]); more than 10 µM in assay [6] (setting [13]). Also, the “Efficacy at mLXRα” value in assay [1] (activity of standard ligand at 20 μM) was determined as 120X.

As for `C[C@@H]1CC[C@@]2(OC1)O[C@H]1C[C@H]3[C@@H]4CC[C@H]5C[C@@H](O)CC[C@]5(C)[C@H]4C[C@@H](O)[C@]3(C)[C@H]1[C@@H]2C` [OR-885, 5α,20α, 22α, 25D-SPIROSTAN-3β, 12β-DIOL], the EC50 in assay [1] is more than 10 µM; in assay [2] (Table 3, steroidal antagonists, read-out: Assay EC50 in micromolar transcriptional), 0.2 µM; in assay [2] (setting [9]), less than 1 µM; in assay [3] it was more than 10 µM; in assay [4], more than 10 µM; in assay [5], more than 10 µM. The same molecule showed an EC50 in assay [6] of more than 10 µM.

In assay [1], `CCN(c1ccc(C(O)(C(F)(F)F)C(F)(F)F)cc1)S(=O)(=O)c1ccc([N+](=O)[O-])cc1` [OR-1050, N-Ethyl-4-nitro-N-[4-(2,2,2-trifluoro-1-hydroxy-1-trifluoromethyl-ethyl)-phenyl]-benzenesulfonamide] came in with an Emax of more than 80%. Besides, the “potency in repression of RORγ transcription relative to induction of LXR transcription” value in assay [1] is given as “approximately 5 fold”. Besides, the EC50 was 1 to 10 µM in assay [1] (setting [7]); 1.5 µM in assay [1] (read-out: EC50 at LXRα in transcriptional assays); 0.26 µM in assay [2] (Table 1, antagonists, inhibition of basal Gal4-mRORγ transcription in CHO cells, read-out: Assay EC50 in micromolar at mRORγ Transcriptional); 0.26 µM in assay [2] (Table 7, taken from Table 1, read-out: Assay EC50 in micromolar at mRORγ Transcriptional); < 1 µM and 0.3 µM in assay [2] (setting [9]); more than 10 µM in assay [3] (setting [10]). The EC50 in assay [4] (setting [11]), in assay [5] (setting [12]) and in assay [6] (setting [13]) was more than 10 µM each time. Further, in assay [1] (comparison of transcriptional assays for RORγ and LXRα (Table 7)), the “specificity for RORγ versus LXRα” value is on record as “more specific for RORγ than LXRα”.

Take `COc1c(C=NNc2nc(N3CCCCC3)nc(N3CCCCC3)n2)cccc1[N+](=O)[O-]` [OR-2161, N-(4,6-Di-piperidin-1-yl-[1,3,5]triazin-2-yl)-N′-(2-methoxy-3-nitro-benzylidene)-hydrazine]: the concentration giving a half-maximal response (EC50) was more than 10 µM in assay [1] (setting [7]); 0.33 µM in assay [2] (setting [8]); more than 10 µM in assay [3] (setting [10]); more than 10 µM in assay [4] (setting [11]); more than 10 µM in assay [5] (setting [12]); more than 10 µM in assay [6] (setting [13]).

Turning to `COC(C)CCC(C)C1CCC2C3CC(O)C4CC(O)CCC4(C)C3CCC12C` (stereo not drawn) [OR-12872, 17-(4-Methoxy-1-methyl-pentyl)-10,13-dimethyl-hexadecahydro-cyclopenta[a]phenanthrene-3,6-diol], the EC50 in assay [1] (setting [7]) is more than 10 µM; in assay [2] (Table 2, agonists, antagonist OR-376 (1.5 μM) added to reduce basal transcriptional activity, read-out: EC50 in micromolar at mRORγ Transcriptional), 0.44 µM; in assay [3] (setting [10]), more than 10 µM; in assay [4] (setting [11]), more than 10 µM; in assay [5] (setting [12]), more than 10 µM; in assay [6] (setting [13]) it was more than 10 µM.

In the case of `CCn1c(CNc2ccc(Cl)cc2)nnc1SCC(=O)Nc1cccc2ccccc12` [OR-133008, 2-{5-[(4-Chloro-phenylamino)-methyl]-4-ethyl-4H-[1,2,4]triazol-3-ylsulfanyl}-N-naphthalen-1-yl-acetamide], the EC50 in assay [1] (setting [7]) was more than 10 µM; in assay [2] (setting [8]) it was 1.46 µM; in assay [3] (setting [10]), more than 10 µM; in assay [4] (setting [11]) it was more than 10 µM; in assay [5] (setting [12]), more than 10 µM; in assay [6] (setting [13]) it was more than 10 µM.
